Two molecules from PMC12677652, “Procyanidin B3 and Its Derivatives Alleviate Neuronal Injury by Targeting G3BP1 for Ischemic Stroke Therapy” (Advanced Science, 2025) can be followed below.

In series [1] the test system is G3BP1 knockdown HT22 cells. In words: Activity of PB3 in G3BP1 knockdown (siRNA) HT22 cells. It is filed as cell-based. The following applies: PB3 50 µM. The protocol: The CCK‐8 assay kit (Yeasen, China) was used to assess cell viability. All operations were performed following instructions. HT22 cells were seeded into the 96‐well plate (3000 cells per well). The cells were cultured at 37 °C with 5% CO2 in a humidified incubator overnight. After 6 h of OGD, the medium was replaced by DMEM/F‐12 with 10% FBS and 1% penicillin/streptomycin containing PB3 or other compounds and kept in a humidified 5% CO2, 37 °C incubator for 24 h. Then, the cells were washed with PBS, the medium was replaced with DMEM/F‐12 with 10% FBS and 1% penicillin/streptomycin containing 10% CCK‐8 solution, and incubated for 1 h at 37 °C. The absorbance was assessed by a Synergy H1 multi‐mode microplate reader (BioTek, USA) at 450 nm.
Apoptosis level was evaluated by TUNEL staining and flow cytometry. For TUNEL staining, HT22 cells were treated with 4% paraformaldehyde for 15 min. […] Red fluorescence was utilized to identify apoptotic cells, while 4′, 6‐diamidino‐2‐phenylindole (DAPI) was used to counterstain the nuclei. The fluorescence microscope (Carl Zeiss, Germany) was used to obtain images. For flow cytometry, apoptotic cells were determined with the Annexin V‐Alexa Fluor 488/PI apoptosis detection kit (Yeasen, China) by following the instructions. […] Cell apoptosis was immediately determined by Cytek Aurora (Cytek Biosciences, USA). […]

Series [2] deals with T1, G3BP1 (Mus musculus, UniProt P97855).
T1 construct: endogenous in cells; host or cells: HT22 cell lysate
The series can be described thus: Cellular thermal shift assay. The settings on record: HT22 cell lysate. It is filed as binding. The protocol: HT22 cells were grown to 90% confluency and harvested by trypsin and resuspended in 1 mL PBS. The samples were subjected to three freeze–thaw cycles in liquid nitrogen. Each cell lysate was centrifuged (12000 g for 30 min at 4 °C), and the supernatant was collected. The supernatants were treated with PB3 (or PBS control) for 20 min. Subsequently, they were aliquoted into Eppendorf tubes and heated for 3 min to 44, 48, 52, 56, or 60 °C. The soluble fractions were analyzed by SDS‐polyacrylamide gel electrophoresis and immunoblotted with anti‐G3BP1 antibody.

The subject of series [3] is G3BP1. The series can be described thus: Immunoblotting of G3BP1 protein level. It is filed as cell-based. The protocol:
Cells and tissues were homogenized in RIPA buffer (Beyotime, China) containing protease inhibitors (Biovision, USA) on ice for 30 min. After centrifugation (13000 r min^−1, 4 °C) for 10 min, the resulting supernatant was collected. The protein concentrations were determined by a BCA protein assay kit (Thermo Scientific, USA). After separating a 10% sodium dodecyl sulfate (SDS)‐polyacrylamide gel, protein on the gel was then transferred onto nitrocellulose membranes (Merck, USA), which were blocked with 5% bovine serum albumin for 1 h to prevent non‐specific binding. Then, the anti‐caspase 3 antibody (catalog no. 9662, Cell Signaling Technology, USA), anti‐Bcl‐2 antibody (catalog no. GTX100064, GeneTex, USA), anti‐G3BP1 antibody (catalog no. 66486‐1‐Ig, Proteintech, China), anti‐β‐tubulin antibody (catalog no. 66240‐1‐Ig, Proteintech, China), and anti‐β‐actin antibody (catalog no. 66009‐1‐Ig, Proteintech, China) were used for treating the membrane overnight at 4 °C. Bound antibodies were detected with the species‐appropriate horseradish peroxidase‐labeled secondary antibody (Jackson ImmunoResearch, USA) using ECL reagents (ShareBio, China). Protein‐specific signals were detected using a Bio‐Rad Imager (Bio‐Rad, USA), and the bands were quantified by densitometric analysis software (ImageJ). β‐tubulin or β‐actin was used as a loading control.
In general terms: In western blotting, separated proteins are transferred to a membrane and probed.

In the next series the test system is tMCAO mice. The series can be described thus: Long-term neurological recovery after tMCAO. The following applies: 48 mg/kg daily, i.p. It is filed as in vivo. The protocol: The modified neurological severity score was applied according to the previous report.^[ [63] ^] The range of the neurological function score extends from 0 to 18 points. A higher score represents more severe neurological deficits. In the rotarod test, according to the previous report,^[ [64] ^] mice were tested under the accelerating rotor mode with acceleration from 5 to 20 rpm. The final score for statistical analysis was expressed as the mean time that mice could remain on the rod.

A further series has as its system bEnd.3 cells. In words: In vitro BBB model, Transwell transport apical-to-basolateral. The format is in vitro ADME. The following applies: 100 µM, apical-to-basolateral, 30, 60, and 120 min. The protocol:
The Transwell filters (0.4 µm pore) were used to evaluate the crossing capacity of the BBB of selected compounds. The basolateral side of the wells was filled by DMEM (Gibco, USA) with 10% FBS. Then, bEnd.3 cells were seeded on the apical side of the semi‐permeable filter in a humidified atmosphere. The culture medium was changed on alternate days. To verify if the cell monolayer formed junctions, the resistance was daily monitored by determining the trans‐endothelial electrical resistance. The resistance value of an empty filter was subtracted from each measurement. After reaching the confluence, bEnd.3 monolayer cells were washed three times with PBS, and the basolateral compartment was filled with Hanks' Balanced Salt Solution (HBSS). The permeability experiments across the cell monolayer were performed in the apical‐to‐basolateral direction. Transport experiments were assessed by placing the compounds, prepared in HBSS, on the upper side of the monolayers (100 µM/300 µL). At different time points (30, 60, and 120 min), 500 µL samples were taken from the basolateral side, and to replace the withdrawn volume, the same volume of preheated HBSS was added. The amount of cellular drug uptake was measured using a Waters e2695 system (Waters, USA).

T1 sequence (P97855 whole entry): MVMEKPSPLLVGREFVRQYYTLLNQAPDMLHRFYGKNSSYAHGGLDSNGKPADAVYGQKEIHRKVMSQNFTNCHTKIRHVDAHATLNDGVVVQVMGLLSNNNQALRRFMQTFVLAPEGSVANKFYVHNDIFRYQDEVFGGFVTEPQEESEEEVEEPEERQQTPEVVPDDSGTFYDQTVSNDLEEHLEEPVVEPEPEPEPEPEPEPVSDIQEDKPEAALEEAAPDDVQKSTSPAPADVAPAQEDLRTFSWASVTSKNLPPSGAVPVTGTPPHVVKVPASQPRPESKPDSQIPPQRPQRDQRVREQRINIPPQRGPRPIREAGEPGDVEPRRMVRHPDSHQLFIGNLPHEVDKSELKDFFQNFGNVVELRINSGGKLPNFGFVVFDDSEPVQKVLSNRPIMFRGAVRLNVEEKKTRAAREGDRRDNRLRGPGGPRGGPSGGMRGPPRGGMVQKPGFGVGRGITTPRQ

`Oc1cc(O)c2c(c1)O[C@H](c1ccc(O)c(O)c1)[C@@H](O)[C@@H]2c1c(O)cc(O)c2c1O[C@H](c1ccc(O)c(O)c1)[C@@H](O)C2` [Compound 1, procyanidin B3]: in series [1], the “cell viability, effect of G3BP1 knockdown” value is listed as “inhibited the neuroprotective effects” and the “rate of TUNEL‐positive cells” value is “not significantly changed”. Further, the “thermal stability of G3BP1” value on G3BP1 [2] is “enhanced the thermal stability of G3BP1”. The “protein level of G3BP1” value in the series with G3BP1 [3] is recorded as “did not perturb the protein level of G3BP1”.
With `CC(C)c1c(O)cc(O)c2c1O[C@H](c1ccc(O)c(O)c1)[C@@H](O)[C@@H]2c1c(O)cc(O)c2c1O[C@H](c1ccc(O)c(O)c1)[C@@H](O)C2` [Compound 6c, 8‐Isopropyl‐(+)‐Catechin‐(4α,8)‐(+)‐Catechin], in the series with tMCAO mice, the body weight result is “mitigated the tendency toward weight loss” and the “modified neurological severity scores” value was “lower scores than the tMCAO group”. Moreover, the rotarod test result with tMCAO mice (at the end of treatment) is recorded as “showed improvements compared with the tMCAO group”. Also, the transport efficiency result in the series with bEnd.3 cells was “better than that of 1”.
